Test results as given in patent US8921108B2, “Differentiated human liver cell cultures and their use in bioartificial liver systems” (Academisch Ziekenhuis Bij de Universiteit van Amsterdam, priority 2009, dated 2014).

Assays:
HepaRG cells = test: Urea production of HepaRG monolayer cultures; assay type: cell-based, human
Description: For testing, the cells are seeded in 6-well and 24-well culture plates (Corning) in HepaRG media with different FBS batches or other differences in medium composition. After a 2 weeks proliferation phase, 2% of DMSO will be added to half of the cultures. After another 2 weeks of culturing, the confluence and morphology of the cultures will be assessed microscopically. Furthermore the +DMSO and −DMSO cell cultures in the 24-well plates will be tested for biochemical activity, i.e. urea production, ammonia elimination and protein content. […] Medium samples are taken after 1 hr from the culture wells, as a reference, and after 24 hours. At the end of the test period the cells are washed three times using PBS and stored at −20° C. for protein determination. From the changes in concentration at t=1 hr and 24 hr of urea and ammonia an activity per hour and per mg protein/well is calculated.
(§1) Urea: Urea concentrations of test medium samples are determined using the blood urea nitrogen test of Sigma Chemical Co according to the instructions of the manufacturer.
(§2) The HepaRG cells are cultured as indicated above in 24 well in presence or absence of 1 mM CG during the last 5 days. Next the cells are tested as indicated above in presence or absence of CG during 24 hours. To determine the conversion of ammonia into urea, the ^15N urea enrichment (single and double labeled) is measured in the test samples using mass-spectrometry. Similarly, HepG2 and cBAL111 cells were tested for their response to CG.

cBAL111 cells = test: Urea production of cBAL111 cells in monolayer, response to CG; assay type: cell-based, human
Description: as §1, §2

NC(=O)N[C@@H](CCC(=O)O)C(=O)O [CG, carbamoyl glutamate]
instantaneous effect of CG on urea production (HepaRG cells): negligible
Urea production (HepaRG cells; HepaRG + DMSO, 1 mM CG in preincubation and in testmedium (++)): 13.7 ± 4.4 nmol/h/mg protein
Urea production (HepaRG cells; HepaRG + DMSO, 1 mM CG only during preincubation (+−)): 11.0 ± 5.3 nmol/h/mg protein
Urea production (HepaRG cells; HepaRG + DMSO, 1 mM CG only during test (−+)): 4.9 ± 4.2 nmol/h/mg protein
Urea production (HepaRG cells; HepaRG − DMSO, 1 mM CG in preincubation and in testmedium (++)): 9.5 ± 4.2 nmol/h/mg protein
Urea production (HepaRG cells; HepaRG − DMSO, 1 mM CG only during preincubation (+−)): 9.6 ± 3.3 nmol/h/mg protein
Urea production (HepaRG cells; HepaRG − DMSO, 1 mM CG only during test (−+)): 5.9 ± 2.4 nmol/h/mg protein
increase of urea production by CG treatment (HepaRG cells; all cell lines (HepG2, cBAL111, HepaRG), 1 mM CG): more than two-fold
time increased urea production is maintained upon withdrawal of the CG (HepaRG cells; cells exposed to carbamoyl glutamate for at least 5 days): at least 24 hrs
Urea production (cBAL111 cells; 1 mM CG in preincubation and in testmedium (++)): 9.4 ± 8.4 nmol/h/mg protein
Urea production (cBAL111 cells; 1 mM CG only during preincubation (+−)): 10.8 ± 6.2 nmol/h/mg protein
Urea production (cBAL111 cells; 1 mM CG only during test (−+)): 8.3 ± 8.3 nmol/h/mg protein
